Results on 1 compound are retold here after patent publication US20120135089A1, “E3 LIGASE INHIBITORS” (priority 2009, published 2012).

For test [1], the system named is Mdm2, p21, puma, and bax transcripts. In words: qRT-PCR of p53 target genes in RKO cells. The test is classed as cell-based, human. The note with it: 5 μg/ml MEL23, 24 or 48 hours. As for the experimental part: RKO cells were treated with 5 μg/ml (14 μM) MEL23 for 24 or 48 hours. Quantitative real-time PCR was used to analyze the mRNA levels of the Mdm2, p21, puma, and bax transcripts. All values are normalized to no treatment, DMSO control. The figure is representative of three independent experiments and standard error bars represent intra-experimental error.
RKO cells were treated with 5 μg/ml (14 μM) MEL23 for 24 or 48 hours, 0.1 μg/ml (0.2 μM) doxorubicin for 48 hours, or 10 μM ALLN for 24 hours. Quantitative real-time PCR was used to analyze mRNA levels of the Mdm2, p21, puma, and bax transcripts. All values were normalized to no treatment (NT), DMSO control. The figure is representative of three independent experiments and standard error bars represent intra-experimental error.
RNA was harvested using RNeasy Mini kit (Qiagen, Cat. No. 74104) and first-strand cDNA synthesis was performed with the TaqMan Reverse Transcription Reagents for qRT-PCR (Applied Biosystems Inc., Foster City, Calif., Cat. No. N8080234) according to the manufacturers' protocol. Samples were analyzed by quantitative real-time PCR on an ABI 7300 real-time PCR instrument (Applied Biosystems) using the ΔΔCT method. PCR reaction mixtures contained 75 ng of cDNA, 1×SYBR Green Mix (Applied Biosystems, Cat. No. 4367659), and 100 nM primers. Values were normalized to those of the hprt1 housekeeping gene (47).

For test [2], the system named is U2OS (p53 wild-type) and H1299 (p53 null) cells. The test is described as follows: combination viability assay, excess over Bliss independence. The test is classed as cell-based, human. As for the experimental part: All values were normalized to no treatment. […] Percent cell death was determined by normalization to a no treatment control. Bliss Independence was determined by the formula C=A+B−A*B, where A is treatment with one compound alone and B is treatment with the second compound alone.
Cells were then treated with the indicated concentration of compound. […] Fluorescence intensity was determined using the Victor3 Plate Reader (PerkinElmer). Median percent survival or growth inhibition was calculated and normalized to a no treatment control.
The excess over the predicted Bliss independence was determined by subtracting the predicted Bliss effect for each treatment from the experimentally determined growth inhibition for the same treatment.

Test [3] concerns Mdm2. In words: Western blot of Mdm2 in MEFs. The test is classed as cell-based, mouse. Particulars: 5 μg/ml (14 μM), 6 hours. As for the experimental part:
MEFs were treated with 5 μg/ml (14 μM) of MEL23 for 6 hours. Cells were lysed and analyzed by Western blotting using anti-Mdm2 and anti-eIF4E antibodies. NT indicates a no treatment control.
Cells were seeded and treated with the indicated compound(s). Cells were lysed after each time point in a buffer of 50 mM TrisHCl pH 7.5, 200 mM NaCl, 0.5% NP-40, and 1 complete mini EDTA-free protease inhibitor cocktail tablet per 10 mL of buffer (Roche, Cat. No. 8360170). Protein content was quantified using a Biorad protein assay reagent (Bio-Rad Laboratories, Hercules, Calif., Cat. No. 500-0006). SDS sample buffer was added to the samples, and the mixture was boiled for 5 minutes. Equal amounts of protein were resolved on a 1D SDS-PAGE gel. Following separation proteins were transferred to nitrocellulose membrane, blocked with 5% milk, and then incubated with primary antibody overnight at 4° C. The membrane was incubated with secondary-HRP antibody for 45 minutes at room temperature and developed with SuperSignal West Pico Substrate (Pierce, Rockford, Ill., Cat. No. 34080).
In general terms: In western blotting, separated proteins are transferred to a membrane and probed.

“Also recorded” adds a separate entry of the source.

As for `CCCCn1c(=O)[nH]c(O)c(C2NCCc3c2[nH]c2ccccc32)c1=O` (centres unmarked) [MEL23], the “mRNA levels of p53 target genes Mdm2, p21, Bax, puma” value in test [1] was “increased within 48 hours of treatment; also recorded: increased the transcription of p53 target genes to intermediate levels compared to doxorubicin and ALLN”. Further, in test [2] (48 hours, excess over Bliss independence), the “synergy of MEL23 with Nutlin-3 on viability” value is “Synergy between MEL23 and Nutlin-3 occurred, but to a lesser extent than the combination of MEL23 and DNA-damaging agents”. In addition, the “synergy with DNA damaging agents in p53-null cells” value in test [2] (H1299 (p53-null)) is reported as “synergized with DNA damaging agents; also recorded: cooperated with DNA-damaging agents in p53-null cells to a small, yet reproducible, extent”. Also, in test [2] (U2OS and H1299, 48 hours, excess over Bliss independence), the “synergy with camptothecin or etoposide on viability” value is given as “synergistic effect on viability”. Further, in test [3], the “Mdm2 level in MEFs” value is reported as “increased Mdm2 in MEFs”.
